According to patent publication US9682966B2, “Kappa opioid ligands” (The Scripps Research Institute, priority 2012, dated 2017):

Target: kappa opioid receptor (OPRK1) (Homo sapiens (Human), UniProt P41145)
Assay: OPRK1 antagonist assay (b-arrestin-2-TEV / b-lactamase reporter, EC80 U-50488 challenge)
Type: cell-based
Conditions: % inhibition to which the printed IC50 value refers, if other than 50%

kappa opioid receptor (OPRK1), sequence (P41145 whole entry): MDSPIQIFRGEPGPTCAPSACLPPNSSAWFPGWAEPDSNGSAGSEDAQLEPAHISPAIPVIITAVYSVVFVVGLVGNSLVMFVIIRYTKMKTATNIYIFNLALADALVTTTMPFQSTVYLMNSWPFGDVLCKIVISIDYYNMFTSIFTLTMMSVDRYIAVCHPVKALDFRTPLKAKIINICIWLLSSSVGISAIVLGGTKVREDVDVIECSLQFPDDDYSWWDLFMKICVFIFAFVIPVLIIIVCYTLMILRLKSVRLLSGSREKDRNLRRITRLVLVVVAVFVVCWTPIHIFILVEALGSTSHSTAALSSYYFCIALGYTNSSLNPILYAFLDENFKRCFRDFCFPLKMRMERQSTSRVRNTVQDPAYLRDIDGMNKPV

SMILES	% inhib if other than 50% [%]
O=C(O)c1cc(Br)cnc1N1CCC(NC2CCCCC2)CC1 [compound 34]	85

Same assay, conditions: OPRK1 antagonist assay vs EC80 U-50488

SMILES	IC50 [nM]
Cc1ccc2nc(N3CCC(N)CC3)c(-c3nc(C)no3)cc2c1 [C82]	> 10000
CO[C@@H]1CN(c2ncc(C)cc2-c2nc(C)no2)CC[C@@H]1NC1CCCC1 [compound 345]	104
COC(=O)c1cc(Br)cnc1N1CCC(CN)CC1 [C16]	> 10000
Cc1cc(-c2nc(C3CC3)no2)c(N2CCC(NC3CCCCC3)CC2)nn1 [compound 457]	24
CO[C@H]1CN(c2ncc(C)cc2-c2nc(C3CC3)no2)CC[C@H]1NC1CCCCC1 [compound 398]	18
CCc1ccc(-c2cc3cc(C)ccc3nc2N2CCC(NC3CCCCC3)CC2)nn1 [compound 455]	1640
COC1CN(c2nc3ccc(C)cc3cc2-c2noc(C)n2)CCC1NC1CCCCC1 (stereo not shown) [compound 314]	2
Cc1ccc2nc(N3CCC(NC4CCC[C@@H]4O)CC3)c(-c3nc(C)no3)cc2c1 (stereo partly shown) [compound 372]	15
CC(=O)c1cc(C2CC2)cnc1N1CCC(NC2CCCCC2)C(CO)C1 (stereo not shown) [C63]	> 10000
COC(=O)c1cnc(N2CCC(NC3CCCCC3)CC2)c(Br)c1 [C43]	15000
COC1CN(c2ncc(C)cc2-n2ccc(C)n2)CCC1NC1CCCCC1 (stereo not shown) [compound 358]	9
COC(=O)c1ccc(C(F)(F)F)nc1N1CCC(NC2CCCCC2)CC1 [C24]	> 10000
COC(=O)c1cc(NC(=O)c2cc(C)on2)cnc1N1CCC(NC2CCCCC2)CC1 [C34]	> 10000
COC(=O)c1cc(Br)cnc1N1CCC(NC2CCC(O)CC2)CC1 (stereo not shown) [C6]	> 10000
CO[C@@H]1CN(c2nc3ccc(C)cc3cc2-c2nc(C)no2)CC[C@@H]1NC1CCCC1 [compound 347]	32
COC(=O)c1cc(C#N)c(N2CCC(NC3CCCCC3)C(O)C2)nc1C (stereo not shown) [C57]	> 20000
Cc1ccc2nc(N3CCC(NC4CCC[C@@H]4O)CC3)c(-c3ccc(C)nn3)cc2c1 (stereo partly shown) [compound 444]	634
CO[C@H]1CN(c2nc3ccccc3cc2-c2ccc(C)nn2)CC[C@H]1NC1CCCCC1 [compound 344]	16.8
CO[C@H]1CN(c2nc3c(C)cc(C)cc3cc2-c2nc(C)no2)CC[C@H]1NC1CCCCC1 [compound 362]	3
CCOC(=O)c1cc(C(N)=O)c(C)nc1N1CCC(NC2CCCCC2)CC1 [C28]	> 10000
COCCOC(=O)c1cc(Br)cnc1N1CCC(NC2CCCCC2)CC1 [C31]	> 10000
CO[C@@H]1CN(c2nc3ccccc3cc2-c2nc(C)no2)CC[C@@H]1NC1CCCCC1 [compound 329]	12.2
CC(=O)c1cc(-c2ccccc2)cnc1N1CCC(NC2CCCCC2)C(CO)C1 (stereo not shown) [C64]	> 10000
Cc1ccc2nc(N3CCC(NC4CCCC[C@@H]4O)CC3)c(-c3ccc(C)nn3)cc2c1 (stereo partly shown) [compound 443]	33

SMILES	IC50 [nM]
COC(=O)c1cc(C2=CCCCC2)cnc1N1CCC(NC2CCCCC2)CC1 [C17]	> 10000
CO/N=C/c1cc2cc(C)ccc2nc1N1CCC(NC2CCCCC2)CC1 [compound 459]	15
COC(=O)c1cc(C2CC2)cnc1N1CCC(NC2CCCCC2)CC1 [C15]	> 10000
CO[C@@H]1CN(c2ncc(C)cc2-n2ccc(C)n2)CC[C@@H]1NC1CCCCC1 [compound 383]	1160
Cc1cc(C(=O)N(C)C)c(N2CCC(NC3CCCCC3)CC2)nn1 [compound 400]	279
COC1CN(c2nc3c(C)cc(C)cc3cc2-c2nc(C)no2)CCC1NCC(C)C (stereo not shown) [compound 365]	8
CO[C@H]1CN(c2nnc(C)cc2-c2nc(C3CC3)no2)CC[C@H]1NC1CCCCC1 [compound 456]	6
O=C(c1ccccc1)N1CCC(N[C@@H]2CCCC[C@H]2O)CC1 [C10]	> 10000
Cc1nc(-c2cc3cc(F)ccc3nc2N2CCC(NC3CCCCC3)CC2)no1 [compound 489]	616
CO[C@H]1CN(c2ncc(C)cc2-c2noc(C)n2)CC[C@H]1NC1CCCCC1 [compound 395]	49
COC(=O)c1cc(Br)cnc1N1CCC(NCc2ccccc2O)CC1 [C22]	> 10000
COC(=O)c1cnc(N2CCC(NC3CCCCC3)C(O)C2)c(Br)c1 (stereo not shown) [compound 103]	137
CO[C@H]1CN(c2nc(C)ccc2-c2ccc(C)nn2)CC[C@H]1NC1CCCCC1 [compound 426]	1970
CO[C@@H]1CN(c2nc(C)c(C)cc2-c2nc(C)no2)CC[C@@H]1NC1CCCC1 [compound 346]	137
COC(=O)c1cc(Br)cnc1N1CCC(N2CCOCC2)CC1 [C5]	> 10000
CO[C@@H]1CN(c2nc3ccc(C)cc3cc2-c2nc(C)no2)CC[C@@H]1NC1CCCCC1 [compound 315]	4
CCC(CC)NC1CCN(c2nc3ccc(F)cc3cc2-c2noc(C)n2)CC1 [compound 490]	248
Cc1cc(C)c2nc(N3CCC(NC4CCOCC4)CC3)c(-c3nc(C)no3)cc2c1 [compound 363]	10
CNC(=O)c1cc2cc(C)ccc2nc1N1CCC(NC2CCCCC2)C(CO)C1 (stereo not shown) [C89]	> 10000
COC(=O)c1cnc(N2CCC(NC3CCCCC3)C(CO)C2)c(Br)c1 (stereo not shown) [compound 102]	13000
Cc1ccc(-c2nc(C)no2)c(N2CCC(NC3CCCCC3)CC2)n1 [compound 387]	89
Cc1ccc2nc(N3CCCC(NC4CCCCC4)CC3)c(-c3nc(C)no3)cc2c1 (stereo not shown) [C80]	> 10000
Cc1cnc(N2CCC(NC3CCOCC3)CC2)c(-c2nc(C3CC3)no2)c1 [compound 396]	2260
Cc1cnc(N2CCC(NC3CCOCC3)CC2)c(-c2nc(C)no2)c1 [compound 389]	153

SMILES	IC50 [nM]
COC(=O)c1cc(Br)cnc1N1CCC(Nc2ccccc2)CC1 [C7]	> 10000
O=Cc1cc(Br)cnc1N1CCC(NC2CCCCC2)C(O)C1 (stereo not shown) [C47]	> 10000
Cc1ccc2nc(N3CCC(NCC(C)C)CC3)c(-c3ccc(C)nn3)cc2c1 [compound 442]	324
Cc1ccc2nc(N3CCC(NC4CCOC4)CC3)c(-c3ccc(C)nn3)cc2c1 (stereo not shown) [compound 458]	440
Cc1cnc(N2CCC(NCC(C)C)CC2)c(-c2ccc(C)nn2)c1 [C93]	10200
Cc1ccc2nc(N3CCC(NC4CCCOC4)CC3)c(-c3noc(C)n3)cc2c1 (stereo not shown) [compound 419]	2
Cc1ccc2nc(N3CCC(NC4CCCCCC4)CC3)c(-c3nc(C)no3)cc2c1 [compound 367]	2
CO[C@H]1CN(c2nc3ccc(C)cc3cc2-c2ccc(C)nn2)CC[C@H]1NC1CCCCC1 [compound 439]	231
Cc1ccc2nc(NCCCNC3CCOCC3)c(-c3nc(C)no3)cc2c1 [C85]	> 10000
Cc1ccc2nc(N3CCC(NC4CCOC4)CC3)c(-c3noc(C)n3)cc2c1 (stereo not shown) [compound 432]	22
Cc1ccc2nc(N3CCC(NC4CCC4)CC3)c(-c3nc(C)no3)cc2c1 [compound 370]	37
Cc1ccc2nc(N3CCC(NC4CCCCC4)C(CO)C3)c(-c3noc(C)n3)cc2c1 (stereo not shown) [compound 328]	0.72
Cc1ccc2nc(N3CCN(CC4CCCCC4)C(CO)C3)c(-c3nc(C)no3)cc2c1 (stereo not shown) [C76]	> 10000
COC(=O)c1cc(Br)cnc1N1CCC(N(C(C)=O)C2CCCCC2)C(OC(C)=O)C1 (stereo not shown) [C48]	> 10000
Cc1ccc2nc(N3CCC(NC4CCCCCC4)CC3)c(-c3noc(C)n3)cc2c1 [compound 415]	3
Cc1ccc2nc(N3CCC(CNC4CCCCC4)CC3)c(-c3nc(C)no3)cc2c1 [C84]	> 10000
Cc1cc(C)c2nc(N3CCC(NCC(C)C)CC3)c(-c3nc(C)no3)cc2c1 [compound 364]	18
Cc1cnc(N2CCC(NC3CCCCC3)CC2)c(-c2nc(C)no2)c1 [compound 388]	20
Cc1ccc2nc(N3CCC(NCC(C)(C)O)CC3)c(-c3noc(C)n3)cc2c1 [compound 412]	476
Cc1ccc(-c2nc(C)no2)c(N2CCC(NC3CCCCC3)C(CO)C2)n1 (stereo not shown) [compound 386]	31
CO[C@H]1CN(c2ncc(C)cc2-n2ccc(C)n2)CC[C@H]1NC1CCCCC1 [compound 366]	19
COC1CN(c2nc3ccccc3cc2-c2cccnn2)CCC1NC1CCCCC1 (stereo not shown) [compound 463]	54
CCC(CC)NC1CCN(c2nc3ccc(C)cc3cc2-c2noc(C)n2)CC1 [compound 416]	4
O=Cc1cc(Br)cnc1N1CCC(NC2CCCCC2)CC1 [C45]	> 10000
